Experimental data as given in ChEMBL document CHEMBL4627246, “Pyroglutamide-Based P2X7 Receptor Antagonists Targeting Inflammatory Bowel Disease” (J Med Chem, 2020).

Tests used:
Assay type in all cases: cell-based
RXF 393 = test: Cytotoxicity against human RXF393 cells assessed as effect on cell growth at 10 uM incubated for 48 hrs by sulforhodamine B assay; settings: rxf 393, 48 h
SK-MEL-2 = test: Cytotoxicity against human SK-MEL-2 cells assessed as effect on cell growth at 10 uM incubated for 48 hrs by sulforhodamine B assay; settings: sk-mel-2, 48 h
TK-10 = test: Cytotoxicity against human TK10 cells assessed as effect on cell growth at 10 uM incubated for 48 hrs by sulforhodamine B assay; settings: tk-10, 48 h
SNB-19 = test: Cytotoxicity against human SNB19 cells assessed as effect on cell growth at 10 uM incubated for 48 hrs by sulforhodamine B assay; settings: snb-19, 48 h
K562 = test: Cytotoxicity against human K562 cells assessed as effect on cell growth at 10 uM incubated for 48 hrs by sulforhodamine B assay; settings: k562, 48 h
HOP-62 = test: Cytotoxicity against human HOP62 cells assessed as effect on cell growth at 10 uM incubated for 48 hrs by sulforhodamine B assay; settings: hop-62, 48 h
SK-OV-3 = test: Cytotoxicity against human SKOV3 cells assessed as effect on cell growth at 10 uM incubated for 48 hrs by sulforhodamine B assay; settings: sk-ov-3, 48 h
UO-31 = test: Cytotoxicity against human UO31 cells assessed as effect on cell growth at 10 uM incubated for 48 hrs by sulforhodamine B assay; settings: uo-31, 48 h
NCI-H522 = test: Cytotoxicity against human NCI-H522 cells assessed as effect on cell growth at 10 uM incubated for 48 hrs by sulforhodamine B assay; settings: nci-h522, 48 h
DU-145 = test: Cytotoxicity against human DU145 cells assessed as effect on cell growth at 10 uM incubated for 48 hrs by sulforhodamine B assay; settings: du-145, 48 h
M14 = test: Cytotoxicity against human M14 cells assessed as effect on cell growth at 10 uM incubated for 48 hrs by sulforhodamine B assay; settings: m14, 48 h
MCF7 = test: Cytotoxicity against human MCF7 cells assessed as effect on cell growth at 10 uM incubated for 48 hrs by sulforhodamine B assay; settings: mcf7, 48 h
MOLT-4 = test: Cytotoxicity against human MOLT4 cells assessed as effect on cell growth at 10 uM incubated for 48 hrs by sulforhodamine B assay; settings: molt-4, 48 h
SK-MEL-5 = test: Cytotoxicity against human SK-MEL-5 cells assessed as effect on cell growth at 10 uM incubated for 48 hrs by sulforhodamine B assay; settings: sk-mel-5, 48 h
MDA-MB-435 = test: Cytotoxicity against human MDA-MB-435 cells assessed as effect on cell growth at 10 uM incubated for 48 hrs by sulforhodamine B assay; settings: mda-mb-435, 48 h
HCT-15 = test: Cytotoxicity against human HCT15 cells assessed as effect on cell growth at 10 uM incubated for 48 hrs by sulforhodamine B assay; settings: hct-15, 48 h
CAKI-1 = test: Growth inhibition of human Caki1 cells assessed as growth percentage at 10 uM incubated for 48 hrs by sulforhodamine B assay; settings: caki-1, 48 h
EKVX = test: Cytotoxicity against human EKVX cells assessed as effect on cell growth at 10 uM incubated for 48 hrs by sulforhodamine B assay
Hs-578T = test: Cytotoxicity against human Hs 578T cells assessed as effect on cell growth at 10 uM incubated for 48 hrs by sulforhodamine B assay
UACC-62 = test: Cytotoxicity against human UACC62 cells assessed as effect on cell growth at 10 uM incubated for 48 hrs by sulforhodamine B assay; settings: uacc-62, 48 h

Measured: Activity

COC(=O)[C@@H]1C/C(=C\NCc2ccc(Cl)cc2Cl)C(=O)N1C(=O)OC
Non-Toxic: all assays above

C[n+]1ccccc1C(=O)NCc1ccc(Cl)cc1Cl.[I-]
Non-Toxic: all assays above

O=C(Nc1ccc(Cl)cc1Cl)[C@@H]1CCC(=O)N1Cc1ccccc1Cl
Non-Toxic: all assays above

COc1ccc(N2C(=O)[C@@H]3C/C(=C\N(C)C)C(=O)N3C2N(C)C)cc1 (stereo not given in full)
Non-Toxic: all assays above

O=C(NCc1ccc(Cl)cc1Cl)[C@@H]1CCC(=O)N1c1ccc(Cl)cc1Cl
Non-Toxic: all assays above

CN1C(=O)C(C)(C)C[C@H]1C(=O)NCc1cccc(C(F)(F)F)c1Cl
Non-Toxic: all assays above

O=C(NCc1ccccc1Cl)[C@@H]1CCC(=O)N1Cc1ccccc1
Non-Toxic: all assays above

COc1ccc(CN2C(=O)[C@@H]3C/C(=C\N(C)C)C(=O)N3C2N(C)C)c(OC)c1 (stereo not given in full)
Non-Toxic: all assays above
